Values after ≈ are worked out from the molar mass of the structure shown.

For assay [1], the system named is croton oil-induced inflammation of rat ears. The assay is described as follows: Topical antiinflammatory activity against croton oil-induced inflammation of rat ears. Type of assay: in vivo. The following applies: 2-3 mg/ear.
For assay [2], the system named is croton oil-induced inflammation of mouse ears. The assay is described as follows: Topical antiinflammatory activity against croton oil-induced inflammation of mouse ears. Type of assay: in vivo. The settings on record: 2-3 mg/ear.
In assay [3] the test system is gastrin-induced gastric acid secretion. The assay is described as follows: Gastrin-induced gastric acid secretion. The settings on record: in vivo.
The subject of another assay is inflammation. The assay is described as follows: Topical and injectable antiinflammatory activity (general statement). Type of assay: in vivo.
Assay [4] has as its system rat uterine smooth muscle. The assay can be described thus: Contraction of rat uterine smooth muscle.
The subject of assay [5] is adjuvant-induced arthritis in rats. The assay is described as follows: Systemic antiinflammatory activity against adjuvant-induced arthritis in rats. Type of assay: in vivo, rat. The settings on record: intraperitoneal injection, 50 mg/kg.
The subject of assay [6] is histamine-induced bronchoconstriction. The assay can be described thus: Histamine-induced bronchoconstriction. The following applies: in vivo.
The subject of assay [7] is PGE1-induced smooth muscle contractions. The assay is described as follows: Antagonism of PGE1-induced smooth muscle contractions. The following applies: read-out: antagonizes PGE1-induced smooth muscle contractions, concentration for 50% inhibition.
Another assay deals with bronchial smooth muscle. The following applies: cited from earlier work.

Regarding `CCCCCC(O)/C=C/C1CCC(=O)N1CCCCCCC(=O)O` (stereo not drawn) [Compound 5, 7-[2-Oxo-5-(3-hydroxy-1-oct-1-enyl)-1-pyrrolidinyl]-heptanoic Acid], the topical antiinflammatory activity entry in [1] and in [2] was “has shown activity” each time. Also, the “activity in cutting off gastrin-induced gastric acid secretion” value in assay [3] is given as “has shown activity”. Besides, in the assay on inflammation, the “active as injectable antiinflammatory agent” value is given as “active”. The “active as topical antiinflammatory agent” value in the assay on inflammation is given as “active”. Also, the “contracts rat uterine smooth muscle (concentration)” value in assay [4] (in the same way as PGE1) is 50 ng/mL. In assay [5], the systemic antiinflammatory activity result is “has shown activity”. For the same compound, the “activity as antagonist to histamine-induced bronchoconstriction” value in assay [6] is “has shown activity”.

For `CCCCCC(O)/C=C/C1CCC(=O)N1CCCCCCC(=O)OC(C)(C)C` (stereo not drawn) [Compound 4, Tert-butyl 7-[2-Oxo-5-(3-hydroxy-1-oct-1-enyl)-1-pyrrolidinyl]heptanoate], in assay [1], the topical antiinflammatory activity result is given as “also active, though slightly less so”. In addition, the topical antiinflammatory activity result in [2] is recorded as “also active, though slightly less so”. In the assay on inflammation, the “active as injectable antiinflammatory agent” value is listed as “active” and the “active as topical antiinflammatory agent” value is on record as “active”. For the same compound, in assay [4] (rat uterine smooth muscle, compound 5-induced contraction), the “antagonism of the contracting action of compound 5” value was “is antagonized in this action”. Moreover, the systemic antiinflammatory activity entry in assay [5] was “also active, though slightly less so”. In addition, the IC50 in assay [7] worked out at 10 µg/mL (≈ 25.3 µM).

As for `CCCCC[C@H](O)/C=C/[C@@H]1[C@@H](C/C=C\CCCC(=O)O)[C@@H](O)C[C@H]1O` [PGF2 α], the contracting action entry with bronchial smooth muscle was “contracting action”.

On to `CCCCC[C@H](O)/C=C/[C@H]1[C@H](O)CC(=O)[C@@H]1CCCCCCC(=O)O` [PGE1, reference compound], for which, in assay [4] (comparator for compound 5), the “contraction of rat uterine smooth muscle (in words)” value is listed as “contracts rat uterine smooth muscle”. In addition, the “effect on the contracting action of PGF2α” value with bronchial smooth muscle was “reverses or antagonizes”.
